From patent publication US20220339596A1, “METHOD FOR PRODUCING RADICALS, METHOD FOR STERILIZING SPORES, AND CANCER TREATMENT DRUG” (priority 2019, published 2022)
Where two headings read alike, the source gives them in different places.

Legend:
[1] = system: Spores of Bacillus subtilis; type: cell-based
Experimental: Bacillus subtilis was scattered over a nutrient agar medium and incubated at 37° C. for 1 week. Colonies were scraped off from the agar medium and washed by being suspended in a physiological saline solution, and Bacillus subtilis collected through centrifugal separation was taken to be cell spores. The cell spores were suspended in a physiological saline solution at a concentration of about 6×10^6 spores/mL. The suspension of cell spores was prepared so as to have the target concentration of cell spores by being diluted with purified water as appropriate.
On the other hand, a reagent having a pH of 7.0 was prepared and irradiated with light using the LED in the same manner as that described above in (1) to generate radicals. The reagent (chlorine dioxide radical concentration: 600 μmol/L) in which radicals were generated was diluted with a 10 mmol/L potassium phosphate buffer solution (pH: 7.0) as appropriate to prepare samples containing radicals at predetermined concentrations. […] Thereafter, the liquid mixture was scattered over brain heart agar, incubation was performed at 37° C. for 12 hours, and then the number of colonies was counted.
As control 1, a reagent having a pH of 7.0 that was not irradiated with light was added to the suspension of cell spores and was left to stand, and incubation was performed as described above, and then the number of colonies was counted. […]

[2] = ClO2 radical concentration over time (absorption spectrum); type: physicochemical; details: photoirradiation not performed
Experimental: 1 mL of each of the reagents was placed in a disposable cell UV (product name: Two-face transparent semimicro #1941,Nikko Hansen & CO., LTD.), and was irradiated with light via a side surface of the cell using an LED in the same manner as in Example 1 (1) described above. The photoirradiation was performed similarly to Example 1 described above, unless otherwise specified. […] Then, an absorption spectrum was measured over time from the start of irradiation using the double optical path spectrophotometer (product name: UV-2400PC, SHIMADZU CORPORATION), and the molar concentration of chlorite ions (ClO2^−) was calculated from an absorbance at the minimum absorption of the wavelength of 260 nm, and the molar concentration of chlorine dioxide radicals (ClO2^⋅) was calculated from an absorbance at the maximum absorption of the wavelength of 359 nm.

[3] = system: Yeast cells; type: cell-based
Experimental: Yeast was inoculated into a modified YPE liquid medium (2% of polypeptone, 1% of yeast extract, 2% of ethanol, and 0.2% of glucose) and was incubated at 30° C. for 1 day. A bacterial liquid was collected from the liquid medium and washed by being suspended in purified water, and yeast cells collected through centrifugal separation were taken as a specimen. The cells were suspended in a 100 mmol/L potassium phosphate buffer solution (pH: 7.0) at a concentration of about 5×10^8 cells/mL. Also, the suspension of cells was diluted with a 100 mmol/L potassium phosphate buffer solution as appropriate so as to have a target concentration of cells.
The reagent containing chlorine dioxide radicals prepared as described above in (3) was diluted with a 10 mmol/L potassium phosphate buffer solution (pH: 7.0) to prepare a sample containing chlorine dioxide radicals at a concentration of 20 μmol/L. On the other hand, the suspension of cells prepared in (1) was diluted with a 10 mmol/L potassium phosphate buffer solution (pH: 7.0) such that the concentration of cells was about 5×10^8 cells/mL. Next, 0.5 mL of the sample containing chlorine dioxide radicals was mixed with 0.5 mL of the suspension of cell spores, and the liquid mixture was left to stand at room temperature for 30 minutes. Thereafter, the liquid mixture was scattered over brain heart agar and incubated at 30° C. for 1 day, and then the number of colonies was counted.
Then, similarly to Experiment 1 described above, 0.5 mL of a yeast solution having a yeast cell concentration of about 5×10^8 cells/mL was added to 0.5 mL of the reagent, and 1 mL of the resultant solution was placed in a disposable cell UV (product name: Two-face transparent semimicro #1941, Nikko Hansen & CO., LTD.), and was irradiated with light using an LED via a side surface of the cell. […] The radiant energy under the above condition was calculated as 37.8 J/cm^2. The solution after the treatment was scattered over brain heart agar after being diluted as appropriate, and incubated at 30° C. for 1 day, and then the number of colonies was counted.

[4] = system: Candida albicans; type: cell-based
[5] = system: respiratory chain; assay: Electron transfer activity of the respiratory chain in yeast cells; type: cell-based; details: in proportion to the reduction in survival rate
Source text: (§1) Accordingly, it is supposed that the respiratory chain in mitochondria was one target portion of the yeast cells and the Candida cells treated with chlorine dioxide radicals. It is thought that when the respiratory chain is damaged, ROS (Reactive Oxygen Species) are generated, which leads to apoptosis and the death of cells.

[6] = system: respiratory chain; assay: Electron transfer activity of the respiratory chain in Candida cells; type: cell-based, Candida albicans; details: in proportion to the reduction in survival rate
Source text: as §1

[7] = system: HT-29 cells (human colon adenocarcinoma cells); details: for cancer cells killed: 455 nm light 72 J/cm^2
Experimental: HT-29 cells (human colon adenocarcinoma cells) were inoculated into each well of a cell incubation microplate (subjected to surface treatment) having 96 wells and grown in a CO2 incubator at 37° C. in the presence of 5% of CO2 until the number of cells reached about 2000 cells/well. 90 μL of McCoy's 5a Medium (the name of a product manufactured by FUJIFILM Wako Pure Chemical Corporation) was used as the cell culture medium. Next, after each treatment described below in (1) to (6) was performed, the medium was replaced with 90 μL of McCoy's 5a Medium and the cells were incubated in the CO2 incubator for 2 days under the above conditions. 10 μL of a WST-8 solution (solution in a product “WST-8 Cell Proliferation Kit”, Funakoshi Co., Ltd.) was added to measure the number of living cells, then incubation was performed in the CO2 incubator (37° C.) for 5 hours, and thereafter an absorbance of 450 nm was measured using a microplate reader. The percentage of the absorbance of each sample relative to an absorbance when treatment (1), which was a control experiment, was performed was calculated. The absorbance when treatment (1) was performed was almost the same as the absorbance of untreated cells.
Conditions of treatments (1) to (6) and percentages of absorbances of samples obtained through the treatments were as follows. The amount by which the percentage of an absorbance decreased from 100% is presumed to be substantially equal to a death rate (%) of cancer cells.
(1) The medium was replaced with 100 μL of PBS (pH: 7.0)** and left to stand at room temperature for 30 minutes. ------ Absorbance percentage: 100% (2) The medium was replaced with 100 μL of PBS (pH: 7.0) and irradiated with light (radiant energy: 72 J/cm^2) at room temperature for 30 minutes using an LED (product name: M455L3, Thorlabs Japan Inc., wavelength: 455 nm, irradiance: 40 mW/cm^2). ------ Absorbance percentage: 96% (3) The medium was replaced with 100 μL of PBS (pH: 7.0) containing 1.4 mM of NaClO2 and left to stand at room temperature for 30 minutes. ------ Absorbance percentage: 97% (4) The medium was replaced with 100 μL of PBS (pH: 7.0) containing 1.4 mM of NaClO2 and irradiated with light (radiant energy: 72 J/cm^2) at room temperature for 30 minutes using an LED (product name: M455L3, Thorlabs Japan Inc., wavelength: 455 nm, irradiance: 40 mW/cm^2). ------ Absorbance percentage: 11% (5) The medium was replaced with 100 μL of PBS (pH: 7.0) containing 2.8 mM of NaClO2 and left to stand at room temperature for 30 minutes. ------ Absorbance percentage: 97% (6) The medium was replaced with 100 μL of PBS (pH: 7.0) containing 2.8 mM of NaClO2 and irradiated with light (radiant energy: 72 J/cm^2) at room temperature for 30 minutes using an LED (product name: M455L3, Thorlabs Japan Inc., wavelength: 455 nm, irradiance: 40 mW/cm^2). ------ Absorbance percentage: 6% **: A phosphate-buffered saline whose pH was adjusted to 7.0 and osmotic pressure was adjusted to be the same as that of a standard phosphate-buffered saline having a pH of 7.5 was used. Specifically, PBS (pH: 7.0) had the following composition: NaCl: 140 mM, KCl: 0.43 mM, KH2PO4: 3.72 mM, Na2HPO4: 5.81 mM.

[8] = Experiment 1: 20 μmol/L chlorine dioxide radical sample mixed 1:1 with cell suspension, room temperature 30 minutes
[9] = control: sodium chlorite aqueous solution not irradiated with light, 25° C. 1 hour

Row | Molecule | number of spores decreased to ([1]; chlorine dioxide radical concentration 300 μmol/L, room temperature 30 minutes) | time in which ClO2 radical concentration decreased by about half [2] | concentration of cells after treatment [3, 8] | survival rate relative to untreated [3, 8] | survival rate relative to untreated ([4]; as Experiment 1 (pre-generated chlorine dioxide radicals)) | electron transfer activity of the respiratory chain [5] | electron transfer activity of the respiratory chain [6] | reduction in the number of spores ([1]; control 1: reagent pH 7.0 not irradiated with light) | survival rate [3, 9] | survival rate relative to untreated ([4]; as Experiment 2 (sodium chlorite with LED irradiation)) | survival rate [4, 9] | cancer cells killed ([7]; 1.4 mM) | cancer cells killed ([7]; 2.8 mM) | Absorbance percentage (450 nm, relative to treatment (1)) ([7]; treatment (3): 1.4 mM, PBS pH 7.0, room temperature 30 minutes, no light) | Absorbance percentage (450 nm, relative to treatment (1)) ([7]; treatment (4): 1.4 mM, PBS pH 7.0, 455 nm LED 40 mW/cm^2 30 minutes (72 J/cm^2)) | Absorbance percentage (450 nm, relative to treatment (1)) ([7]; treatment (5): 2.8 mM, PBS pH 7.0, room temperature 30 minutes, no light) | Absorbance percentage (450 nm, relative to treatment (1)) ([7]; treatment (6): 2.8 mM, PBS pH 7.0, 455 nm LED 40 mW/cm^2 30 minutes (72 J/cm^2))
1 | [O][Cl+][O-] [chlorine dioxide radicals] | ≤ 10^−6 | ~2 h | about 2.5×10^7 cells/mL | about one tenth | about one tenth | reduction | reduction |  |  |  |  |  |  |  |  |  | 
2 | sodium chlorite |  |  |  |  |  |  |  | not confirmed | did not decrease | about one tenth | did not decrease | about 89% | ~94% | 97% | 11% | 97% | 6%
